For assay [1], the target named is T1, phosphorylated VEGF-R2Δ50 (Homo sapiens, UniProt P35968, DEL940-989/E990V).
T1 construct: VEGF-R2Δ50 contains residues 806-939 and 990-1171; made in house; host or cells: baculovirus/insect cells
Put plainly: VEGF-R2 ELISA assay. The conditions noted are these: * determined with ELISA assay, read-out: FLVK-P Ki. Type of assay: biochemical. The text has this: VEGF-R2 Construct for Assay: This construct determines the ability of a test compound to inhibit tyrosine kinase activity. A construct (VEGF-R2Δ50) of the cytosolic domain of human vascular endothelial growth factor receptor 2 (VEGF-R2) lacking the 50 central residues of the 68 residues of the kinase insert domain was expressed in a baculovirus/insect cell system. Of the 1356 residues of full-length VEGF-R2, VEGF-R2Δ50 contains residues 806-939 and 990-1171, and also one point mutation (E990V) within the kinase insert domain relative to wild-type VEGF-R2. Autophosphorylation of the purified construct was performed by incubation of the enzyme at a concentration of 4 μM in the presence of 3 mM ATP and 40 mM MgCl2 in 100 mM Hepes, pH 7.5, containing 5% glycerol and 5 mM DTT, at 4° C. for 2 h. […] See Parast et al., Biochemistry, 37, 16788-16801 (1998).
Formation of phosphogastrin was monitored using biotinylated gastrin peptide (1-17) as substrate. Biotinylated phosphogastrin was immobilized using streptavidin coated 96-well microtiter plates followed by detection using anti-phosphotyrosine-antibody conjugated to horseradish peroxidase. The activity of horseradish peroxidase was monitored using 2,2′-azino-di-[3-ethylbenzathiazoline sulfonate(6)]diammonium salt (ABTS). Typical assay solutions contained: 2 μM biotinylated gastrin peptide; 5 mM DTT; 20 μM ATP; 26 mM MgCl2; and 2 mM MnCl2 in 200 mM Hepes, pH 7.5. The assay was initiated with 0.8 nM of phosphorylated VEGF-R2Δ50. Horseradish peroxidase activity was assayed using ABTS, 10 mM. The horseradish peroxidase reaction was quenched by addition of acid (H2SO4), followed by absorbance reading at 405 nm. Ki values were determined by measuring enzyme activity in the presence of varying concentrations of test compounds. The data were analyzed using Enzyme Kinetic and Kaleidagraph software.
(In general: ELISA stands for enzyme-linked immunosorbent assay.)

In the next assay the target is T2, CHK1 (Homo sapiens, UniProt O14757).
T2 sequence (O14757 1-476): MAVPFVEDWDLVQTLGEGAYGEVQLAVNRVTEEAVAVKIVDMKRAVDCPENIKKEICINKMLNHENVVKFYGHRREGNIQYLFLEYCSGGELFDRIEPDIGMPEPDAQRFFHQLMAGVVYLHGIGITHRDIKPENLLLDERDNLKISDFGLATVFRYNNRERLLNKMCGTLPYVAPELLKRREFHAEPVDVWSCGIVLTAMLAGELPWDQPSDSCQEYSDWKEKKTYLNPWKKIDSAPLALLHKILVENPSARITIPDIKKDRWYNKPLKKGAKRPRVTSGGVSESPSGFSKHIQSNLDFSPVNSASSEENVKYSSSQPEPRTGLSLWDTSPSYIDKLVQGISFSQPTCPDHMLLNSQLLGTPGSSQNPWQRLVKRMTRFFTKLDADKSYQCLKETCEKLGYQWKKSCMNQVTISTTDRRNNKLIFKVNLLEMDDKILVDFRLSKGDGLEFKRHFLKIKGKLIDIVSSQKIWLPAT
Put plainly: CHK1 high-throughput screening. The class given is biochemical. To be noted: for inhibition at 20 µM: read-out: % inhibition @ 20 μM, Table 4, repeated entries per example; for % inhibition @ 20 μM: Table 4, repeated entries per example.

A further assay concerns the target CDK2/Cyclin A complex (Homo sapiens, UniProt P24941). The assay can be described thus: CDK2/Cyclin A assay. Type of assay: biochemical. To be noted: Table 2. Put shortly:
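Radiometric assay: 150 nM CDK2/cyclin A (insect-cell CDK2, truncated cyclin A) phosphorylates His-tagged Rb fragment (residues 386-928) with 25 μM ATP plus [32P]ATP, pH 7.4 HEPES, 2% DMSO, 30 °C for 20 min. Filter-captured product counted by phosphorimager; apparent Ki from competitive or tight-binding inhibition fits.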

Assay [2] concerns the target T3, phosphorylated VEGF-R2Δ50 (FLVK-P) (Homo sapiens, UniProt P35968, DEL940-989/E990V).
T3 construct: VEGF-R2Δ50 contains residues 806-939 and 990-1171; made in house; host or cells: baculovirus/insect cells
Put plainly: VEGF-R2 coupled spectrophotometric (FLVK-P) assay. The class given is biochemical. To be noted: for Ki: spectrophotometric assay. Put shortly:
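Baculovirus-expressed human VEGF-R2Δ50 (residues 806-939/990-1171, E990V) was autophosphorylated with 3 mM ATP, 40 mM MgCl2 for 2 h at 4° C. ADP formation was coupled via PK/LDH to NADH oxidation, read at 340 nm, with 5.1 mM poly(E4Y1), 1 mM ATP, 25 mM MgCl2, Hepes pH 7.5. Ki came from activity across compound concentrations.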

For a further assay, the target named is T4, CDK4/Cyclin D3 complex (Homo sapiens, UniProt P11802).
T4 construct: made in house; host or cells: insect cells co-infected with baculovirus vectors
Put plainly: CDK4/Cyclin D assay. To be noted: Table 2. The class given is biochemical. Put shortly:
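Insect-cell-expressed CDK4/cyclin D3 (50 nM) phosphorylating His-tagged Rb fragment (residues 386-928) with 25 μM [^32P]ATP in HEPES pH 7.4, MgCl2, 2% DMSO; 20 min at 30 °C, EDTA stop. Filter-captured 32P by phosphorimager; apparent Ki from competitive or tight-binding inhibition fits.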

In assay [3] the test system is human umbilical vein endothelial cells (HUVEC). Put plainly: HUVEC proliferation assay. To be noted: Homo sapiens, HUVEC, Table 1. Type of assay: cell-based. Put shortly: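 Exponentially growing HUVEC were serum-starved 24 h (F12K + 1% FBS), pre-treated 1 h with compound (0.1% DMSO final), then stimulated with 6 ng/ml VEGF. Proliferation was read 72 h later by MTT reduction (A595). IC50 came from seven 0.5-log concentrations in triplicate; screens gave % inhibition relative to VEGF-only and starved wells.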

The test system of assay [4] is lung cancer cells (line MV522). The assay can be described thus: Cancer cell proliferation (MV522) assay. Type of assay: cell-based. To be noted: MV522, Table 1. Here is the method: Cancer Cell Proliferation (MV522) Assay
The protocol for assessing cellular proliferation in cancer cells is similar to that used for assessments in HUVEC cells. Two thousand lung cancer cells (line MV522, acquired from American Tissue Cultural Collection) were seeded in growth media (RPMI1640 medium supplemented with 2 mM glutamine and 10% FBS). Cells are allowed to attach for 1 day prior to addition of test agents and/or vehicles. Cells are treated simultaneously with the same test agents used in the HUVEC assay. Cellular proliferation is quantified by MTT dye reduction assay 72 hours after exposure to test agents. The total length of the assay is 4 days vs. 5 for HUVEC cells because MV522 cells are not exposed to starvation medium.

Several values for one entry are separate records, joined by “and”; a condition that tells them apart may be missing. Identical values can stand only once. Like-named read-outs stand apart in the source and are kept apart here.

T1 sequence (P35968 with tags, fused parts or gaps DEL940-989/E990V limits assumed): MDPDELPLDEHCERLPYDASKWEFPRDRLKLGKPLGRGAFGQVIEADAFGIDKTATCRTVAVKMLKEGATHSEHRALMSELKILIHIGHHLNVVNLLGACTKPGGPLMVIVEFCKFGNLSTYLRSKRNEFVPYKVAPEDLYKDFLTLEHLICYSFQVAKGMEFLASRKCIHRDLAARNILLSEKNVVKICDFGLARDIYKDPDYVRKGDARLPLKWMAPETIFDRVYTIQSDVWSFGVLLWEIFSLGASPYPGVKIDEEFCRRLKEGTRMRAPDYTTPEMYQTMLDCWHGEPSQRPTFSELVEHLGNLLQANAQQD
T3 sequence (P35968 with tags, fused parts or gaps DEL940-989/E990V limits assumed): as above
T4 sequence (P11802 whole entry): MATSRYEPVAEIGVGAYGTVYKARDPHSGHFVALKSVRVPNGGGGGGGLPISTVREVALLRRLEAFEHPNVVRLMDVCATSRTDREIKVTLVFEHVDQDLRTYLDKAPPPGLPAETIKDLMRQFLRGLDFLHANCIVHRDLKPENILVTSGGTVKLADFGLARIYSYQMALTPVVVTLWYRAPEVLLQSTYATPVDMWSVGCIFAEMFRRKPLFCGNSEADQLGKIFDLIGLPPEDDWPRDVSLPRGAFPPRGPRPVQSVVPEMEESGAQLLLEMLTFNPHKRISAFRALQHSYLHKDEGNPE
T4 sequence (P30281 whole entry partner): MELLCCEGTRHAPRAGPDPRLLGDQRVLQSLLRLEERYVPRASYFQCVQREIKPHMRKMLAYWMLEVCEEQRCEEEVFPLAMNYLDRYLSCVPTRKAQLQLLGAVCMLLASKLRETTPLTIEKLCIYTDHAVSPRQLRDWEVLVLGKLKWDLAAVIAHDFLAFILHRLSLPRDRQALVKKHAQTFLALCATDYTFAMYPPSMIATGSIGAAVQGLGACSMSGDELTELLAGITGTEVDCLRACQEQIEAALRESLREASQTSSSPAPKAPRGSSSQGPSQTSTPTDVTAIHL

As for `COc1cc(Nc2nc(N)c(C3=NC(c4ccccc4Br)CO3)s2)cc(OC)c1OC` (racemic) [I(13), (R/S)-5-[4-(2-Bromo-phenyl)-4,5-dihydro-oxazol-2-yl]-N^2-(3,4,5-trimethoxy-phenyl)-thiazole-2,4-diamine], the Ki in assay [1] (Table 2) is 1.25 µM.
Regarding `COc1cc(Nc2nc(N)c(C3=NC(c4cccc(Br)c4)CO3)s2)cc(OC)c1OC` (racemic) [I(14), (R/S)-5-[4-(3-Bromo-phenyl)-4,5-dihydro-oxazol-2-yl]-N^2-(3,4,5-trimethoxy-phenyl)-thiazole-2,4-diamine], in assay [1] (Table 2), the Ki was determined as 1.17 µM.
Still for that read-out and setting: as for `COc1cc(Nc2nc(N)c(C3=NC(C)CO3)s2)cc(OC)c1OC` (racemic) [I(15), (R/S)-5-(4-Methyl-4,5-dihydro-oxazol-2-yl)-N^2-(3,4,5-trimethoxy-phenyl)-thiazole-2,4-diamine], the figure is 73 µM; as for `COc1cc(Nc2nc(N)c(C3=NC(C(C)C)CO3)s2)cc(OC)c1OC` (racemic) [I(17), (R/S)-5-(4-Isopropyl-4,5-dihydro-oxazol-2-yl)-N^2-(3,4,5-trimethoxy-phenyl)-thiazole-2,4-diamine], 35 µM.
`COc1cc(Nc2nc(N)c(C3=NCC(C)O3)s2)cc(OC)c1OC` (racemic) [I(19), (R/S)-5-(5-Methyl-4,5-dihydro-oxazol-2-yl)-N^2-(3,4,5-trimethoxy-phenyl)-thiazole-2,4-diamine]: the Ki in assay [1] (Table 2) is 34 µM.
On the same count and under the same terms, the result for `COc1cc(Nc2nc(N)c(C3=N[C@@H](C)C(c4ccccc4)O3)s2)cc(OC)c1OC` (stereo in doubt) [I(16), 5-(4-Methyl-5-phenyl-4,5-dihydro-oxazol-2-yl)-N^2-(3,4,5-trimethoxy-phenyl)-thiazole-2,4-diamine] reads 178 µM.
Regarding `CNc1nc(N)c(-c2nc(-c3cccc(O)c3)cs2)s1` [A(30), 3-(4′-Amino-2′-methylamino-[2,5′]bithiazolyl-4-yl)-phenol], the inhibition at 20 µM at CHK1 turned out to be 3.4%. Further, the Ki at CDK2/Cyclin A complex worked out at 4.8 µM; in assay [2] (Table 2), 0.11 µM; on CDK4/Cyclin D3 complex it was 22 µM.
`Nc1nc(NCCc2ccccc2)sc1-c1nc(-c2cccc(NC(=O)c3ccccc3)c2)cs1` [A(38), N-[3-(4′-Amino-2′-phenethylamino-[2,5′]bithiazolyl-4-yl)-phenyl]-benzamide]: at CHK1, the “% inhibition @ 20 μM” value stood at 9.8% and the inhibition at 20 µM stood at 9.1%. Further, in assay [2] (Table 1, at 0.05, concentration unit not printed (head nM)), the “FLVK-P % inhibition @ 0.05” value is 7% @.
In the case of `Cc1cc(C)cc(Nc2nc(N)c(-c3nc(-c4cccc(NC(=O)c5ccccc5)c4)cs3)s2)c1` [A(42), N-{3-[4′-Amino-2′-(3,5-dimethylphenylamino)-[2,5′]bithiazolyl-4-yl]-phenyl}-benzamide], the inhibition at 20 µM at CHK1 was -0.1%. The compound further yielded a Ki in assay [2] (Table 1) of 0.0073 µM.
Regarding `Nc1nc(Nc2ccc3c(c2)CCC3)sc1-c1nc(-c2cccc(NC(=O)c3ccccc3)c2)cs1` [A(43)], the inhibition at 20 µM at CHK1 was -3%.
Take `CSc1cccc(Nc2nc(N)c(-c3nc(-c4cccc(NC(=O)c5ccccc5)c4)cs3)s2)c1` [A(46), N-{3-[4′-Amino-2′-(3-methylsulfanyl-phenylamino)-[2,5′]bithiazolyl-4-yl]-phenyl}-benzamide]: the inhibition at 20 µM on CHK1 came out at 0.9%.
`Nc1nc(Nc2cccc(C(=O)O)c2)sc1-c1nc(-c2cccc(NC(=O)c3ccccc3)c2)cs1` [A(50), 3-[4′-Amino-4-(3-benzoylamino-phenyl)-[2,5′]bithiazolyl-2′-ylamino]-benzoic acid]: the inhibition at 20 µM on CHK1 amounted to 30.1%. The IC50 in assay [3] is > 0.7 µM; in assay [4] it was > 10 µM. Affinity in assay [2] (Table 1) was put at a Ki of 0.0089 µM.
For the compound `COc1ccc(Nc2nc(N)c(-c3nc(-c4cccc(NC(=O)c5ccccc5)c4)cs3)s2)cc1` [A(52), 4-(4′-Amino-4-(3-benzamidophenyl)-[2,5′]bithiazolyl-2′-ylamino)-methoxyphenyl], at CHK1, the inhibition at 20 µM stood at 2%.
Same read-out and setting: as for `Nc1nc(Nc2ccc(S(=O)(=O)N3CCCCC3)cc2)sc1-c1nc(-c2cccc(NC(=O)c3ccccc3)c2)cs1` [A(55), 4-(4′-Amino-4-(3-benzamidophenyl)-[2,5′]bithiazolyl-2′-ylamino)-phenylsulfonylpiperidine], the figure is 0.1%.
Turning to `Nc1nc(Nc2ccc([N+](=O)[O-])cc2)sc1-c1nc(-c2cccc(NC(=O)c3ccccc3)c2)cs1` [A(56), 4-(4′-Amino-4-(3-benzamidophenyl)-[2,5′]bithiazolyl-2′-ylamino)-nitrophenyl], the inhibition at 20 µM on CHK1 is -2.9%. The same compound had a Ki in assay [2] (Table 1) of 0.084 µM.
With `CC(=O)c1ccc(Nc2nc(N)c(-c3nc(-c4cccc(NC(=O)c5ccccc5)c4)cs3)s2)cc1` [A(58), 4-(4′-Amino-4-(3-benzamidophenyl)-[2,5′]bithiazolyl-2′-ylamino)-acetophenone], the inhibition at 20 µM on CHK1 is -7.2%.
Consider `Nc1nc(Nc2ccc(S(N)(=O)=O)cc2)sc1-c1nc(-c2ccc(Cl)c(O)c2)cs1` [A(69), 4-[4′-Amino-4-(4-chloro-3-hydroxy-phenyl)-[2,5′]bithiazolyl-2′-ylamino]-benzenesulfonamide], for which, at CHK1, the “% inhibition @ 20 μM” value is 2.7% and 3.8%; the inhibition at 20 µM was determined as 4.8%. For the same compound, the Ki at CDK2/Cyclin A complex worked out at 4 µM. In addition, the Ki on CDK4/Cyclin D3 complex was determined as 7.2 µM.
Regarding `Nc1nc(Nc2ccc(S(N)(=O)=O)cc2)sc1-c1nc(-c2ccc(-c3ccccc3)cc2)cs1` [A(70), 4-(4′-Amino-4-biphenyl-4-yl-[2,5′]bithiazolyl-2′-ylamino)-benzenesulfonamide], on CHK1, the inhibition at 20 µM was 3.8%. The inhibition at 100 µM on CDK4/Cyclin D3 complex (at 100 (printed 100 or 100 μM)) was < 0%.
Regarding `COc1cc(Nc2nc(N)c(-c3nc(-c4cccc(NC(=O)Cc5ccccc5)c4)cs3)s2)cc(OC)c1OC` [D(5), N-{3-[4′-Amino-2′-(3,4,5-trimethoxy-phenylamino)-[2,5′]bithiazolyl-4-yl]-phenyl}-2-phenyl-acetamide], the Ki in assay [1] (Table 1) was 0.063 µM.

Usually Ki stands for a measure of affinity in units of concentration, obtained from inhibition or displacement. A word on the inhibition: it is the relative decrease from the control value, in per cent. As a reminder, the IC50 is the concentration needed to halve the response being measured. A low value points to higher potency.

Source of the values: patent US6620828B2, “Thiazole compounds and pharmaceutical compositions for inhibiting protein kinases and methods for their use” (Agouron Pharmaceuticals, Inc., priority 1999, dated 2003).
